We go through two compounds from patent publication US3966850A, “O-ethyl-S-n-propyl-O-(2-bromo-4-cyanophenyl)-thionothiol-phosphoric acid ester” (priority 1973, dated 1976).

One series relates to insects. Conditions: known from U.S. Pat. No. 3,607,991; cited from earlier work.
Series [1] relates to insects and mites (Acarina). Kind of series: Insecticidal and acaricidal activity (statement in words). Conditions: sucking and biting insects and mites (Acarina). It is filed as in vivo.
The next series has as its system warm-blooded animals. The experiment in a line: Toxicity to warm-blooded animals (statement in words). The series is classed as in vivo. Conditions: as compared to prior art compounds of analogous structure and same type of action.
Series [2] in a line: Toxicity test/peroral (LD50, evaluation after 7 days). Particulars: rat, in vivo, po. From the text: Test animal: Albino rat (Rattus norvegicus)
Dosing was effected volumetrically after weighing the test animals. A steel knob-ended probe was used for oral administration.

Broadly, the LD50 is the dose at which mortality reaches 50%. A higher LD50 goes with a less toxic substance.

Regarding `CCOP(=S)(OCC)Oc1ccc(C#N)cc1` [Compound A, O,O-diethyl-O-(4-cyanophenyl)-thionophosphoric acid ester], in the series with insects, the insecticidal activity result is recorded as “possess insecticidal activity”.
Take `CCCSP(=S)(OCC)Oc1ccc(C#N)cc1Br` (stereo not shown) [I, O-ethyl-S-n-propyl-O-(2-bromo-4-cyanophenyl)-thionothiol-phosphoric acid ester]: in series [1], the “insecticidal and acaricidal activity” value is “good insecticidal and acaricidal activity”. Further, the “toxicity to warm-blooded animals” value in the series with warm-blooded animals is given as “very low toxicity”. The compound further registered an LD50 at 168 h in series [2] of 100 to 250 mg/kg.
